The results in this text go back to patent US20120214862A1, “MODULATION OF FACTOR 7 EXPRESSION” (ISIS Pharmaceuticals, Inc., priority 2009, published 2012).

In the oligonucleotide strings, read from the 5' end, every base follows the letter of its sugar. An asterisk marks phosphorothioate; unmarked linkages are phosphodiester. Other units and linkages are bracketed, terminal groups are in braces. A string of capitals states the bases alone. e = 2'-O-(2-methoxyethyl) (MOE); [5mC] = 5-methylcytosine; d = 2'-deoxy (DNA)

The test system of the first data set is human Factor 7 mRNA. Put plainly: Antisense inhibition of human Factor 7 mRNA in HepB3 cells, lipofectin, 50 nM, real-time RT-PCR. It is filed as cell-based. To be noted: Example 1; HepB3 cells, lipofectin, 50 nM, ~24 h, relative to untreated control cells. The method, then:
Antisense oligonucleotides targeted to a Factor 7 nucleic acid were tested for their effects on Factor 7 mRNA in vitro. Cultured HepB3 cells at a density of 4,000 cells per well were transfected using lipofectin reagent with 50 nM antisense oligonucleotide. After a treatment period of approximately 24 hours, RNA was isolated from the cells and Factor 7 mRNA levels were measured by real-time RT-PCR, as described herein. Factor 7 mRNA levels were adjusted according to total RNA content as measured by RIBOGREEN®. Results are presented as percent inhibition of Factor 7, relative to untreated control cells.
(§1) Antisense oligonucleotides targeted to a Factor 7 nucleic acid were designed and tested for their effects on Factor 7 mRNA in vitro. Certain antisense oligonucleotides from Table 3 were also retested for their effects on Factor 7 mRNA in vitro. Cultured HepB3 cells at a density of 4,000 cells per well were transfected using lipofectin reagent with 50 nM antisense oligonucleotide. After a treatment period of approximately 24 hours, RNA was isolated from the cells and Factor 7 mRNA levels were measured by real-time RT-PCR, as described herein. Human Factor 7 primer probe set RTS 2927 was used to measure mRNA levels. Factor 7 mRNA levels were adjusted according to total RNA content as measured by RIBOGREEN®. Results are presented as percent inhibition of Factor 7, relative to untreated control.
as §1, with “tested” for “tested for their effects on Factor 7 mRNA in vitro. Certain antisense oligonucleotides from Table 3 were also retested”
These gapmers were designed by creating gapmers shifted slightly upstream and downstream (i.e. “microwalk”) of the original gapmers from Table 7. Gapmers were also created with various motifs, e.g. 5-10-5 MOE, 3-14-3 MOE, and 2-13-5 MOE. These gapmers were tested in vitro. Cultured HepB3 cells at a density of 4,000 cells per well were transfected using lipofectin reagent with 50 nM antisense oligonucleotide. After a treatment period of approximately 24 hours, RNA was isolated from the cells and Factor 7 mRNA levels were measured by real-time RT-PCR. Factor 7 mRNA levels were adjusted according to total RNA content, as measured by RIBOGREEN®. Results are presented as percent inhibition of Factor 7, relative to untreated control cells.
In general terms: In qPCR the cycle at which signal appears reflects the starting amount.
Regarding “407666 (antisense eT*e[5mC]*e[5mC]*e[5mC]*e[5mC]*dA*dG*dG*dA*d[5mC]*dA*dT*d[5mC]*dT*dG*eG*eA*eA*e[5mC]*eT) [compound 407666]”, the “% Inhibition (human Factor 7 mRNA)” value came out at 52%.
The same measure, in the same setting: the value for “407911 (antisense e[5mC]*e[5mC]*e[5mC]*e[5mC]*eT*dT*dG*d[5mC]*dA*dG*dG*dA*dG*dT*d[5mC]*e[5mC]*eT*eT*eG*e[5mC]) [compound 407911]” was 74%; that for “407656 (antisense e[5mC]*eA*eG*e[5mC]*eA*dA*dG*dA*dG*dT*dG*d[5mC]*dA*dG*d[5mC]*eT*eT*eG*e[5mC]*e[5mC]) [compound 407656]” was 43%; that for “407892 (antisense e[5mC]*e[5mC]*e[5mC]*e[5mC]*eA*dT*dT*d[5mC]*dT*dG*dG*d[5mC]*dA*dT*dG*eG*eA*e[5mC]*eT*eT) [compound 407892]” was 68%.
Take “407931 (antisense e[5mC]*eT*eT*e[5mC]*eA*dG*dA*dG*dG*dA*d[5mC]*dA*dG*d[5mC]*dA*e[5mC]*eA*e[5mC]*eA*eT) [compound 407931]”: the “% Inhibition (human Factor 7 mRNA)” value was determined as 56%.
Same read-out and setting: the value for “407602 (antisense e[5mC]*eT*eG*e[5mC]*eA*dG*d[5mC]*d[5mC]*dA*dG*dG*d[5mC]*dA*dG*d[5mC]*e[5mC]*e[5mC]*eT*eG*eA) [compound 407602]” was 81%.
The same measure, in the same setting: the value for “407942 (antisense e[5mC]*eA*e[5mC]*eA*eG*dG*dT*dG*dT*dG*d[5mC]*dG*dG*dA*dG*eG*eA*eG*eA*e[5mC]) [compound 407942]” was 41%; that for “407961 (antisense eA*eA*eG*eT*eA*dG*dA*dT*dG*dA*dT*dG*d[5mC]*d[5mC]*dT*eG*eA*eG*eT*eG) [compound 407961]” was 34%; that for “407901 (antisense eT*eG*eG*eT*eG*dT*dT*dG*dA*dT*d[5mC]*dA*dG*dG*dG*eT*e[5mC]*e[5mC]*e[5mC]*e[5mC]) [compound 407901]” was 89%.
The same measure, in the same setting: under “407616 (antisense eT*eG*e[5mC]*eA*eG*dG*dA*d[5mC]*dA*d[5mC]*d[5mC]*d[5mC]*d[5mC]*dG*dT*e[5mC]*eT*eG*e[5mC]*e[5mC]) [compound 407616]” stands 64%; under “407941 (antisense eG*eA*eG*eA*e[5mC]*dG*d[5mC]*dA*dG*d[5mC]*d[5mC]*dG*dT*dT*dT*eA*eT*eT*eG*eT) [compound 407941]”, 65%; under “407599 (antisense e[5mC]*e[5mC]*eT*eG*eG*dG*dA*dG*dA*d[5mC]*d[5mC]*dA*dT*dG*dA*eT*eG*eA*eA*eA) [compound 407599]”, 73%.

The same data set, now with this note: Example 4; HepB3 cells, lipofectin, 50 nM, ~24 h, relative to untreated control.
Consider “422263 (antisense eG*eG*dA*dA*dG*dA*dA*dG*dG*dG*dA*d[5mC]*dG*dG*dA*eA*eG*eG*eT*eG) [compound 422263]”, for which the “% Inhibition (human Factor 7 mRNA)” value is given as 19%.

The data set is the same for the next values; noted with them: HepB3 cells, lipofectin, 50 nM antisense oligonucleotide, approximately 24 hours, primer probe set RTS 2927, relative to untreated control.
For the substance “416540 (antisense eG*eG*eA*e[5mC]*eT*dG*dG*dT*dG*dT*d[5mC]*dA*dT*d[5mC]*dT*eG*eG*eG*eA*e[5mC]) [compound 416540]”, the “% Inhibition of human Factor 7 mRNA levels” value is given as 38%.
Still for that read-out and setting: the value for “416522 (antisense eG*eG*e[5mC]*eT*eG*dA*dG*dA*dA*dT*dT*dG*d[5mC]*d[5mC]*d[5mC]*eA*eG*eG*eG*e[5mC]) [compound 416522]” was 25%; that for “416552 (antisense eT*e[5mC]*eT*eG*e[5mC]*dA*d[5mC]*dA*dG*dG*dG*dT*dA*dG*dA*e[5mC]*e[5mC]*e[5mC]*eT*e[5mC]) [compound 416552]” was 46%; that for “416494 (antisense e[5mC]*eA*eG*eA*eT*dT*dT*dA*dA*dA*d[5mC]*dT*dG*d[5mC]*dA*eG*eA*eT*eG*eA) [compound 416494]” was 0%.
Same read-out and setting: under “416491 (antisense eG*eA*eG*eA*eA*dG*dG*dG*dT*dT*dG*d[5mC]*dA*dG*dG*e[5mC]*eA*eG*eG*eA) [compound 416491]” stands 2%.
Still for that read-out and setting: the value for “416501 (antisense e[5mC]*eT*eG*e[5mC]*e[5mC]*d[5mC]*dT*dT*d[5mC]*d[5mC]*dA*d[5mC]*d[5mC]*dA*dA*eG*eT*eT*eT*eA) [compound 416501]” was 18%.
As for “416492 (antisense eG*eG*eA*eT*e[5mC]*dA*dT*dT*d[5mC]*dT*dG*dG*d[5mC]*d[5mC]*d[5mC]*eT*eG*eA*eG*e[5mC]) [compound 416492]”, the “% Inhibition of human Factor 7 mRNA levels” value is listed as 13%.
For the substance “416475 (antisense e[5mC]*eT*e[5mC]*eA*eG*d[5mC]*dT*dG*dG*dG*d[5mC]*dT*dG*dT*d[5mC]*eT*eG*e[5mC]*e[5mC]*eT) [compound 416475]”, the “% Inhibition of human Factor 7 mRNA levels” value came to 70%.
Still for that read-out and setting: the value for “416482 (antisense e[5mC]*eA*eT*eG*eG*dT*dG*dA*dT*dG*d[5mC]*dT*dT*d[5mC]*dT*eG*eA*eA*eT*eT) [compound 416482]” was 64%; that for “416521 (antisense e[5mC]*eA*e[5mC]*e[5mC]*e[5mC]*d[5mC]*dA*d[5mC]*d[5mC]*dA*dG*dG*dT*dT*dG*eT*eG*e[5mC]*eA*e[5mC]) [compound 416521]” was 36%.

The same data set, now with this note: HepB3 cells; gapmers targeted to nucleobases 11830 to 11869 of SEQ ID NO: 1 (Table 9).
Take “422091 (antisense eT*eG*eG*eT*e[5mC]*dA*dG*dG*dG*d[5mC]*dT*dG*dG*dT*dT*eT*eT*eG*eG*eA) [compound 422091]”: the “% Inhibition of human Factor 7 mRNA levels” value was 42%.
For “422163 (antisense eA*eG*eA*d[5mC]*dA*dA*dT*dG*dG*dT*d[5mC]*dA*dG*dG*dG*d[5mC]*dT*eG*eG*eT) [compound 422163]”, the “% Inhibition of human Factor 7 mRNA levels” value is listed as 56%.
On the same count and under the same terms, the value for “422164 (antisense eG*eA*eG*dA*d[5mC]*dA*dA*dT*dG*dG*dT*d[5mC]*dA*dG*dG*dG*d[5mC]*eT*eG*eG) [compound 422164]” was 64%.

Still in this data set, the particulars now being: HepB3 cells; gapmers targeted to nucleobases 13760 to 13789 of SEQ ID NO: 1 (Table 10).
Turning to “422181 (antisense eG*e[5mC]*e[5mC]*dA*d[5mC]*d[5mC]*d[5mC]*dG*d[5mC]*d[5mC]*dG*dG*d[5mC]*dT*d[5mC]*dT*dG*e[5mC]*eT*e[5mC]) [compound 422181]”, the “% Inhibition of human Factor 7 mRNA levels” value is recorded as 66%.
Take “422110 (antisense eA*e[5mC]*e[5mC]*e[5mC]*eG*d[5mC]*d[5mC]*dG*dG*d[5mC]*dT*d[5mC]*dT*dG*d[5mC]*eT*e[5mC]*eA*eT*e[5mC]) [compound 422110]”: the “% Inhibition of human Factor 7 mRNA levels” value is on record as 53%.

The same data set, now with this note: HepB3 cells; gapmers targeted to nucleobases 14707 to 14732 of SEQ ID NO: 1 (Table 11).
As for “422280 (antisense e[5mC]*eA*dG*d[5mC]*d[5mC]*dT*dG*dA*dG*dG*d[5mC]*d[5mC]*dA*dG*d[5mC]*eA*eG*eA*eT*e[5mC]) [compound 422280]”, the “% Inhibition of human Factor 7 mRNA levels” value came out at 52%.
On the same count and under the same terms, under “422133 (antisense eA*eG*e[5mC]*eA*eG*d[5mC]*d[5mC]*dT*dG*dA*dG*dG*d[5mC]*d[5mC]*dA*eG*e[5mC]*eA*eG*eA) [compound 422133]” stands 65%.
Turning to “422201 (antisense eG*e[5mC]*e[5mC]*dT*dG*dA*dG*dG*d[5mC]*d[5mC]*dA*dG*d[5mC]*dA*dG*dA*dT*e[5mC]*eA*e[5mC]) [compound 422201]”, the “% Inhibition of human Factor 7 mRNA levels” value worked out at 71%.

The same data set, now with this note: HepB3 cells; gapmers targeted to nucleobases 15188 to 15211 of SEQ ID NO: 1 (Table 13).
“416482 (antisense e[5mC]*eA*eT*eG*eG*dT*dG*dA*dT*dG*d[5mC]*dT*dT*d[5mC]*dT*eG*eA*eA*eT*eT) [compound 416482]”: the “% Inhibition of human Factor 7 mRNA levels” value was 64%.
